Data: article PMC7413254 (Nature Communications, 2020)

Columns and labels:
PfCRT^Ecu1110 [1] = target: T1, PfCRT^Ecu1110 (Plasmodium falciparum, UniProt Q9N623, A220S/I356L/K76T/N326D); assay: cell-based; type: cell-based; conditions: for PfCRT-mediated [3H]CQ transport, trans-stimulation (% PfCRTEcu1110 control): PfCRTEcu1110 oocytes, normalised to oocyte type control; for Uptake of [3H]CQ (% PfCRTDd2 control), trans-stimulation, PfCRTEcu1110: total [3H]CQ transport; for Uptake of [3H]CQ (% PfCRTDd2 control), trans-stimulation, PfCRTEcu1110 / [3H]CQ transport (% PfCRTDd2 control), trans-stimulation, PfCRTEcu1110: mean ± SEM, SEM; for [3H]CQ transport (% PfCRTDd2 control), trans-stimulation, PfCRTEcu1110: PfCRT-mediated component (background subtracted), sheet title says normalised to PfCRTDd2 control
T1 sequence (Q9N623 whole entry A220S/I356L/K76T/N326D): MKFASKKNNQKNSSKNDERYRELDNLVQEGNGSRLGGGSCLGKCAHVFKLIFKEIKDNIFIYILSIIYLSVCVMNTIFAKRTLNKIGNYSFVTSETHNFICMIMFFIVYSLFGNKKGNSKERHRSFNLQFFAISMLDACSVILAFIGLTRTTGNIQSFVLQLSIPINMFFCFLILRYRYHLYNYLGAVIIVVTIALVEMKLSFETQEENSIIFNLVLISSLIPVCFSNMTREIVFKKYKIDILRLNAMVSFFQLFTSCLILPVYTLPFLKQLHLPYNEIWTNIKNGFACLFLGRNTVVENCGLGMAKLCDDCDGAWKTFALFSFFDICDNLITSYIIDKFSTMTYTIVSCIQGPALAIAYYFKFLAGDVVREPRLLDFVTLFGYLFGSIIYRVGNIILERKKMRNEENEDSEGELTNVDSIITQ
Summary of the method: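 Oocytes (ten per treatment, ≥4 independent frogs/days) were preloaded by injecting VF-6 in 25 nL ND96 at pH 5.0, 5.5, 6.0 or 7.0, or Na^+-free choline buffer, then uptake run 1.5 h, 27.5 °C, ND96 pH 5.5 by default. Internal concentrations assumed ~400 nL oocyte volume.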

non-expressing oocytes = assay: cells; type: cell-based, Xenopus laevis; conditions: total [3H]CQ transport; for Uptake of [3H]CQ (% non-expressing oocyte control), cis-inhibition: non-expressing oocytes, normalised to the oocyte type control; for Uptake of [3H]CQ (% PfCRTDd2 control), cis-inhibition, non-expressing oocytes: mean ± SEM, SEM
Summary of the method: (§1)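 Transport runs from the acidic bath into the cytosol, analogous to PfCRT-mediated efflux out of the vacuole. Non-expressing oocytes act as background.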

PfCRT = assay: Potential co-substrates tested for influx of VF-6 via PfCRT into the oocyte; type: cell-based, Plasmodium falciparum; set-up: key: X: Compounds that have been tested as potential co-substrates but are not required for influx of VF-6 via PfCRT into the oocyte
PfCRT^Dd2 = PfCRT^Dd2 (Plasmodium falciparum, UniProt Q9N623, A220S/I356T/K76T/M74I/N326S/N75E/Q271E/R371I); assay: [3H]CQ uptake into Xenopus oocytes, cis-inhibition by unlabelled solute; type: cell-based; conditions: for Uptake of [3H]CQ (% PfCRTDd2 control), cis-inhibition / PfCRT-mediated [3H]CQ transport, cis-inhibition (% PfCRTDd2 control): PfCRTDd2 oocytes; for Uptake of [3H]CQ (% PfCRTDd2 control), cis-inhibition / Uptake of [3H]CQ (% PfCRTDd2 control), cis-inhibition, PfCRTDd2: total [3H]CQ transport; for Uptake of [3H]CQ (% PfCRTDd2 control), cis-inhibition: normalised to the oocyte type control; for PfCRT-mediated [3H]CQ transport, cis-inhibition (% PfCRTDd2 control): background [3H]CQ accumulation subtracted, normalised to oocyte type control; for Uptake of [3H]CQ (% PfCRTDd2 control), cis-inhibition, PfCRTDd2: mean ± SEM, SEM
Sequence of PfCRT^Dd2 (Q9N623 whole entry A220S/I356T/K76T/M74I/N326S/N75E/Q271E/R371I): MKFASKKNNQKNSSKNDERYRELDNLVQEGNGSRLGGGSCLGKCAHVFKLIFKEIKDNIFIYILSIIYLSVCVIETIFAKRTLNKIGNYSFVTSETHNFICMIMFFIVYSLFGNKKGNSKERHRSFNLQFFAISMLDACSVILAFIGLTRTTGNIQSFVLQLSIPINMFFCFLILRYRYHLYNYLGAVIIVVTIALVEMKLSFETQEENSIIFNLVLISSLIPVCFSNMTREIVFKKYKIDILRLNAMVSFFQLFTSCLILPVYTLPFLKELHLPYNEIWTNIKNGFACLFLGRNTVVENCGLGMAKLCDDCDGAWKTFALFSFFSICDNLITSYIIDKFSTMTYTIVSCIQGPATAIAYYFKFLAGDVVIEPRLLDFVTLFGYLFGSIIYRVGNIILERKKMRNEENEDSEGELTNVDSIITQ
Summary of the method: as §1

PfCRT^Ecu1110 [2] = target: T1, PfCRT^Ecu1110; assay: as above; type: cell-based; conditions: for Uptake of [3H]CQ (% PfCRTEcu1110 control), cis-inhibition / PfCRT-mediated [3H]CQ transport, cis-inhibition (% PfCRTEcu1110 control): PfCRTEcu1110 oocytes; for Uptake of [3H]CQ (% PfCRTEcu1110 control), cis-inhibition / Uptake of [3H]CQ (% PfCRTDd2 control), cis-inhibition, PfCRTEcu1110: total [3H]CQ transport; for Uptake of [3H]CQ (% PfCRTEcu1110 control), cis-inhibition: normalised to the oocyte type control; for PfCRT-mediated [3H]CQ transport, cis-inhibition (% PfCRTEcu1110 control): background [3H]CQ accumulation subtracted, normalised to oocyte type control; for [3H]CQ transport (% PfCRTEcu1110 control), cis-inhibition, PfCRTEcu1110: PfCRT-mediated component (background subtracted), sheet title says normalised to PfCRTDd2 control; for [3H]CQ transport (% PfCRTEcu1110 control), cis-inhibition, PfCRTEcu1110 / Uptake of [3H]CQ (% PfCRTDd2 control), cis-inhibition, PfCRTEcu1110: mean ± SEM, SEM
Summary of the method: as §1

[3] = [test solute]i = 5 mM (intracellular)
[4] = [test solute]i = 45 mM (intracellular; 30 mM for some solutes due to solubility)

## NC(=O)C[C@H](N)C(=O)O [L-asparagine]
PfCRT^Ecu1110 [1]; [3]
  PfCRT-mediated [3H]CQ transport, trans-stimulation (% PfCRTEcu1110 control): 96 ± 2.1 % PfCRTEcu1110 control
  Uptake of [3H]CQ (% PfCRTDd2 control), trans-stimulation, PfCRTEcu1110: 35 ± 1.8 % PfCRTDd2 control
PfCRT^Ecu1110 [1]; [4]
  PfCRT-mediated [3H]CQ transport, trans-stimulation (% PfCRTEcu1110 control): 96 ± 2.7 % PfCRTEcu1110 control
  Uptake of [3H]CQ (% PfCRTDd2 control), trans-stimulation, PfCRTEcu1110: 35 ± 2.1 % PfCRTDd2 control
PfCRT^Ecu1110 [1]; [test solute]i = 5 mM (injected)
  [3H]CQ transport (% PfCRTDd2 control), trans-stimulation, PfCRTEcu1110: 32 ± 1.6 % PfCRTEcu1110 control
PfCRT^Ecu1110 [1]; [test solute]i = 45 mM (30 mM for some solutes due to solubility)
  [3H]CQ transport (% PfCRTDd2 control), trans-stimulation, PfCRTEcu1110: 32 ± 2.1 % PfCRTEcu1110 control
non-expressing oocytes; [test solute] = 0.5 mM
  Uptake of [3H]CQ (% non-expressing oocyte control), cis-inhibition: 100 ± 5.6 % non-expressing oocyte control
  Uptake of [3H]CQ (% PfCRTDd2 control), cis-inhibition, non-expressing oocytes: 3.9 ± 0.02 % PfCRTDd2 control
non-expressing oocytes; [test solute] = 1 mM
  Uptake of [3H]CQ (% non-expressing oocyte control), cis-inhibition: 98 ± 5.3 % non-expressing oocyte control
  Uptake of [3H]CQ (% PfCRTDd2 control), cis-inhibition, non-expressing oocytes: 2.8 ± 0.04 % PfCRTDd2 control
non-expressing oocytes; [test solute] = 2 mM
  Uptake of [3H]CQ (% non-expressing oocyte control), cis-inhibition: 100 ± 4.6 % non-expressing oocyte control
  Uptake of [3H]CQ (% PfCRTDd2 control), cis-inhibition, non-expressing oocytes: 2.5 ± 0.05 % PfCRTDd2 control
PfCRT
  Tested as potential co-substrate but not required for influx of VF-6 via PfCRT into the oocyte: X
PfCRT^Dd2; [test solute] = 0.5 mM
  Uptake of [3H]CQ (% PfCRTDd2 control), cis-inhibition: 100 ± 5.3 % PfCRTDd2 control
  PfCRT-mediated [3H]CQ transport, cis-inhibition (% PfCRTDd2 control): 98 ± 4.1 % PfCRTDd2 control
  Uptake of [3H]CQ (% PfCRTDd2 control), cis-inhibition, PfCRTDd2: 100 ± 5.3 % PfCRTDd2 control
PfCRT^Dd2; [test solute] = 2 mM
  Uptake of [3H]CQ (% PfCRTDd2 control), cis-inhibition: 100 ± 8.5 % PfCRTDd2 control
  PfCRT-mediated [3H]CQ transport, cis-inhibition (% PfCRTDd2 control): 95 ± 3.5 % PfCRTDd2 control
  Uptake of [3H]CQ (% PfCRTDd2 control), cis-inhibition, PfCRTDd2: 100 ± 8.5 % PfCRTDd2 control
PfCRT^Dd2; [test solute] = 1 mM
  PfCRT-mediated [3H]CQ transport, cis-inhibition (% PfCRTDd2 control): 99 ± 6.2 % PfCRTDd2 control
  Uptake of [3H]CQ (% PfCRTDd2 control), cis-inhibition, PfCRTDd2: 101 ± 8.1 % PfCRTDd2 control
PfCRT^Ecu1110 [2]; [test solute] = 0.5 mM
  Uptake of [3H]CQ (% PfCRTEcu1110 control), cis-inhibition: 96 ± 6.6 % PfCRTEcu1110 control
  PfCRT-mediated [3H]CQ transport, cis-inhibition (% PfCRTEcu1110 control): 94 ± 3.6 % PfCRTEcu1110 control
  Uptake of [3H]CQ (% PfCRTDd2 control), cis-inhibition, PfCRTEcu1110: 31 ± 1.5 % PfCRTDd2 control
PfCRT^Ecu1110 [2]; [test solute] = 1 mM
  Uptake of [3H]CQ (% PfCRTEcu1110 control), cis-inhibition: 88 ± 6.1 % PfCRTEcu1110 control
  PfCRT-mediated [3H]CQ transport, cis-inhibition (% PfCRTEcu1110 control): 84 ± 4.9 % PfCRTEcu1110 control
  [3H]CQ transport (% PfCRTEcu1110 control), cis-inhibition, PfCRTEcu1110: 25 ± 0.6 % PfCRTEcu1110 control
  Uptake of [3H]CQ (% PfCRTDd2 control), cis-inhibition, PfCRTEcu1110: 28 ± 1.8 % PfCRTDd2 control
PfCRT^Ecu1110 [2]; [test solute] = 2 mM
  Uptake of [3H]CQ (% PfCRTEcu1110 control), cis-inhibition: 102 ± 6.2 % PfCRTEcu1110 control
  PfCRT-mediated [3H]CQ transport, cis-inhibition (% PfCRTEcu1110 control): 100 ± 5.1 % PfCRTEcu1110 control
  [3H]CQ transport (% PfCRTEcu1110 control), cis-inhibition, PfCRTEcu1110: 30 ± 0.2 % PfCRTEcu1110 control
  Uptake of [3H]CQ (% PfCRTDd2 control), cis-inhibition, PfCRTEcu1110: 33 ± 2.2 % PfCRTDd2 control
